Experimental data from US20240199561A1, “INHIBITORS OF DYRK AND PIM” (COLD SPRING HARBOR LABORATORY, priority 2021, published 2024).
pIC50: −log10 of the molar value. Entries after “also recorded” stand apart in the source; their conditions may differ. One block for each compound: values may come before it.

Columns and labels:
U87MG cells [1] = experiment: Invasion assay (Matrigel), U87MG; type: cell-based; conditions: for ability of the cells to invade the Matrigel chamber / cell invasion (cells crossing matrigel membrane): U87MG; for invasion: U87MG DYRK1A knockouts rescued with point mutant F238LM240R, compared to DYRK1A wild-type treated cells; for cell invasion (cells crossing matrigel membrane): 5 μM and 10 μM, relative to DMSO vehicle
Source text: (§1) The Invasion Assay provides an in vitro system to study cell invasion of malignant and normal cells. Specific applications include assessment of the metastatic potential of tumor cells. Invasion chambers coated with Corning® Matrigel® matrix provide cells with the conditions that allow assessment of their invasive capacity in vitro. Corning Matrigel matrix serves as a reconstituted basement membrane in vitro, occluding the pores of the membrane and blocking non-invasive cells from migrating through the membrane. In contrast, invasive cells (malignant and non-malignant) secrete proteases that enzymatically degrade the Corning Matrigel matrix and enable invasion through the membrane pores.
(§2) In order to assess whether DYRK1A plays a role in cell invasion, we performed an invasion assay using the two GBM cell lines U87MG and LN229. […] Inhibition of DYRK1A using FC2 and FC3 can also decrease the metastatic potential of GBM cells, thus making them good therapeutic candidates for EGFR-dependent GBM.

PIM1 = PIM1 (Homo sapiens (Human), UniProt P11309); experiment: Kinase assay, PIM1 IC50; type: biochemical
[2] = target: panel of 140 different kinases; experiment: Panel of 140 different kinases; type: biochemical
DYRK1A point mutants [3] = target: DYRK1A point mutants (Homo sapiens, UniProt Q13627, F238L/M240R); experiment: In-vitro radiolabeled kinase assays against DYRK1A point mutants; type: biochemical; conditions: F238LM240R
Source text: (§3) Kinase domains contain a gatekeeper residue that partially or fully blocks a hydrophobic region deep in the ATP binding pocket. The gatekeeper residue contributes to the selectivity of kinases for small molecule inhibitors. Based on the DYRK1A crystal structure with FC3 and sequence alignment, the gatekeeper residue in DYRK1A is Phe238 which is replaced by a smaller […] in case of PIM1 and other PIM kinases. Similarly, Met240, two residues after the gatekeeper residue was very unique to DYRK1A. Another interesting residue was Ser241 which was conserved among DYRKs. Point mutants of the gatekeeper residue (F238L), Met240 (M240R), […] and a double mutant (F238LM240R) were created to evaluate if the point mutants show resistance towards FC2 and FC3.
(§4) In-vitro radiolabeled kinase assays were used to determine the IC50s of FC2 and FC3 against the DYRK1A point mutants. There was no change in the Km or Vmax of the point mutants of DYRK1A and their activity was similar to wild-type DYRK1A.

DYRK1A point mutants [4] = target: DYRK1A point mutants (Homo sapiens, UniProt Q13627, F238L); experiment: as above; type: biochemical; conditions: F238L
Source text: as §3, §4

DYRK1A point mutants [5] = target: DYRK1A point mutants (Homo sapiens, UniProt Q13627, M240R); experiment: as above; type: biochemical; conditions: M240R
Source text: as §3, §4

LN229 [6] = experiment: Invasion assay (Matrigel), LN229; type: cell-based
Source text: as §1, §2

U87MG cells [7] = experiment: Neurosphere proliferation assay, U87MG; type: cell-based; conditions: for proliferation of U87MG cells, assessed by neurosphere diameter: 5 μM, 10 μM, and 20 μM, compared to DMSO vehicle control; for neurosphere proliferation: U87MG DYRK1A knockouts rescued with point mutant F238LM240R, compared to DYRK1A wild-type treated cells; for neurosphere proliferation (neurosphere numbers and size): U87MG, serum free conditions with growth factors
Protocol: (§5) Neurospheres are free-floating 3-D clusters of neural stem cells that are grown in serum-free media supplemented with growth factors. These cells have the capacity to self-renew and differentiate into cell types present within the tumor of origin. They are also responsible for tumor propagation, recurrence and resistance to traditional treatments. Neurosphere assays are commonly used to uncover more relevant brain tumor biology than traditional culture conditions. Several parameters can be assayed including neurosphere number and size. Neurosphere formation remained a significant predictor of clinical outcome in GBM, independent of the Ki67 labeling index. […] Self-renewal is the ability of a single cell to form a neurosphere.
(§6) Two EGFR-dependent GBM cell-lines, U87MG and LN229 were grown under serum free conditions with growth factors to induce the formation of neurospheres. Their stemness was confirmed using a western blot to detect stem cell markers. […] This reaffirmed the fact that DYRK1A plays a crucial role in regulating neurosphere self-renewal in GBM.
Compounds of Formula I therefore have an anticancer potential and inhibit proliferation of cells with a cancer phenotype.

DYRK1A = DYRK1A (Homo sapiens (Human), UniProt Q13627); experiment: Radiolabelled kinase assay (IC50 determination), DYRK1A; conditions: read-out: DYRK1A IC50 (nm)
Protocol: Protein kinase assays using radiolabeled [γ-^32P] […] In this assay, the activity of a protein kinase is measured using an appropriate acceptor peptide or protein substrate. The assay method involves the use of P81 phosphocellulose paper squares to capture the phosphorylated peptides or proteins resulting from the protein kinase reaction. The activity of DYRK1A was measured by its ability to phosphorylate the peptide termed Woodtide that is derived from the substrate FKHR (Forkhead in rhabdomyosarcoma) at Ser329. Two lysine residues are added at the N-terminus of the peptide to facilitate its binding to the phosphocellulose paper ([sequence]). Assays were carried out at 30° C. for 10 mins using 25 μM Woodtide in 50 mM HEPES pH 7.5, 50 mM MgCl2, 50 mM DTT and 0.1 mM [γ-^32P] ATP (106 c.p.m./nmol). […] The readings were taken using a scintillation counter and data was analyzed using GraphPad Prism 8. One unit of enzyme activity was the amount that catalyzed the phosphorylation of 1 nmol of Woodtide in 1 min.

LN229 [8] = experiment: Neurosphere proliferation assay, LN229; type: cell-based; conditions: LN229, serum free conditions with growth factors
Protocol: as §5, §6

DYRK1A point mutants [9] = target: DYRK1A point mutants (Homo sapiens, UniProt Q13627, S242A); experiment: In-vitro radiolabeled kinase assays against DYRK1A point mutants; type: biochemical; conditions: S242A
Source text: as §3, §4

Chain of PIM1 (P11309 whole entry): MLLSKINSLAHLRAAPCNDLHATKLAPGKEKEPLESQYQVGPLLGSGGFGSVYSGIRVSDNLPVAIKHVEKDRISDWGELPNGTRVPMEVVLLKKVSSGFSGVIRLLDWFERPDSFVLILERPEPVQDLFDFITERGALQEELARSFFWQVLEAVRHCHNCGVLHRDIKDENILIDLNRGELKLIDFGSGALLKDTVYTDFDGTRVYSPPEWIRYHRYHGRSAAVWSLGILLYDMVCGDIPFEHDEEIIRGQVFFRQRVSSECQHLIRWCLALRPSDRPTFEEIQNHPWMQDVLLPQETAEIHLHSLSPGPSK

PIM1 IC50 (nm) (PIM1): Micromolar inhibition
IC50 against DYRK1A double mutant versus wild-type (DYRK1A point mutants [3]): even higher
IC50 against DYRK1A point mutant versus wild-type (DYRK1A point mutants [4]): significantly higher
IC50 against DYRK1A point mutant versus wild-type (DYRK1A point mutants [5]): significantly higher
pIC50 (DYRK1A): 7.72
SMILES: Oc1ccc(-c2nc3cc4c(cc3s2)OCO4)cc1O [FC-2, 4-([1,3]Dioxolo[4′,5′:4,5]benzo[1,2-d]thiazol-6-yl)benzene-1,2-diol]
ability of the cells to invade the Matrigel chamber (U87MG cells [1]): impaired the ability of the cells to invade
invasion (U87MG cells [1]): did not show a decrease
cell invasion (cells crossing matrigel membrane) (U87MG cells [1]): significantly inhibited cell invasion; also recorded: reduces the invasive ability
kinase specificity [2]: very specific to the DYRK family of kinases
ability of the cells to invade the Matrigel chamber (LN229 [6]): impaired the ability of the cells to invade
proliferation of U87MG cells, assessed by neurosphere diameter (U87MG cells [7]): significantly inhibited proliferation
neurosphere proliferation (U87MG cells [7]): did not show a decrease
neurosphere proliferation (neurosphere numbers and size) (U87MG cells [7]): significant decrease in neurosphere proliferation
neurosphere proliferation (neurosphere numbers and size) (LN229 [8]): significant decrease in neurosphere proliferation

PIM1 IC50 (nm) (PIM1): Micromolar inhibition
IC50 against DYRK1A double mutant versus wild-type (DYRK1A point mutants [3]): even higher
IC50 against DYRK1A point mutant versus wild-type (DYRK1A point mutants [4]): significantly higher
IC50 against DYRK1A point mutant versus wild-type (DYRK1A point mutants [5]): significantly higher
IC50 against DYRK1A point mutant versus wild-type (DYRK1A point mutants [9]): significantly higher
pIC50 (DYRK1A): 7.28
SMILES: O=C(c1ccc(O)c(O)c1)c1nc2cc(O)c(O)cc2s1 [FC-3, (5,6-Dihydroxybenzo[d]thiazol-2-yl)(3,4-dihydroxyphenyl)methanone]
ability of the cells to invade the Matrigel chamber (U87MG cells [1]): impaired the ability of the cells to invade
invasion (U87MG cells [1]): did not show a decrease
cell invasion (cells crossing matrigel membrane) (U87MG cells [1]): significantly inhibited cell invasion; also recorded: reduces the invasive ability
kinase specificity [2]: very specific to the DYRK family of kinases
ability of the cells to invade the Matrigel chamber (LN229 [6]): impaired the ability of the cells to invade
proliferation of U87MG cells, assessed by neurosphere diameter (U87MG cells [7]): significantly inhibited proliferation
neurosphere proliferation (U87MG cells [7]): did not show a decrease
neurosphere proliferation (neurosphere numbers and size) (U87MG cells [7]): significant decrease in neurosphere proliferation
neurosphere proliferation (neurosphere numbers and size) (LN229 [8]): significant decrease in neurosphere proliferation

pIC50 (PIM1): 6.76
pIC50 (DYRK1A): 7.06
SMILES: COc1cc(O)c(C(=O)c2nc3cc(O)c(O)cc3s2)cc1O [FC-4, (2,5-Dihydroxy-4-methoxyphenyl)(5,6-dihydroxybenzo[d]thiazol-2-yl)methanone]

pIC50 (PIM1): 6.84
pIC50 (DYRK1A): 7.02
SMILES: Oc1cc2nc(-c3ccc(O)c(O)c3O)sc2cc1O [FC-5]

pIC50 (PIM1): 6.26
pIC50 (DYRK1A): 6.74
SMILES: COc1cc(O)c(C(=O)c2nc3cc(O)ccc3s2)cc1O [FC-6, (2,5-Dihydroxy-4-methoxyphenyl)(5-hydroxybenzo[d]thiazol-2-yl)methanone]

PIM1 IC50 (nm) (PIM1): Micromolar inhibition
pIC50 (DYRK1A): 6.64
SMILES: O=C(c1ccc(O)c(O)c1)c1nc2c(O)ccc(O)c2s1 [FC-7, (4,7-Dihydroxybenzo[d]thiazol-2-yl)(3,4-dihydroxyphenyl)methanone]

pIC50 (DYRK1A): 6.25
SMILES: COc1ccc(O)c2nc(C(=O)c3ccc(O)c(O)c3)sc12 [FC-7A, (3,4-dihydroxyphenyl)(4-hydroxy-7-methoxybenzo[d]thiazol-2-yl)methanone]

pIC50 (PIM1): 6.50
pIC50 (DYRK1A): 6.62
SMILES: COc1ccc(C(=O)c2nc3cc(O)c(O)cc3s2)cc1F [FC-8, (5,6-Dihydroxybenzo[d]thiazol-2-yl)(3-fluoro-4-methoxyphenyl)methanone]

pIC50 (DYRK1A): 6.96
SMILES: Oc1ccc(-c2nc3ccc4nn[nH]c4c3s2)cc1O [FC-10, 4-(1H-thiazolo[5′,4′:3,4]benzo[1,2-d][1,2,3]triazol-7-yl)benzene-1,2-diol]

pIC50 (DYRK1A): 6.40
SMILES: Oc1ccc(-c2nc3c(ccc4[nH]cnc43)s2)cc1O [FC-14, 4-(6H-imidazo[4′,5′:5,6]benzo[1,2-d]thiazol-2-yl)benzene-1,2-diol]

pIC50 (PIM1): 6.62
SMILES: O=C(c1nc2cc(O)c(O)cc2s1)c1cc(O)c(O)cc1O [FC-63]

PIM1 IC50 (nm) (PIM1): No Inhibition
pIC50 (DYRK1A): 6.28
SMILES: O=[N+]([O-])c1ccc(O)cc1-c1nc2cc3c(cc2s1)OCO3 [FC-115]

pIC50 (DYRK1A): 6.30
SMILES: Oc1ccc(-c2nc3ccc4[nH]ncc4c3s2)cc1O [FC-196, 4-(6H-thiazolo[5,4-e]indazol-2-yl)benzene-1,2-diol]

pIC50 (DYRK1A): 7.24
SMILES: Oc1ccc(-c2nc3cc4cn[nH]c4cc3s2)cc1O [FC-204, 4-(1H-thiazolo[4,5-f]-indazol-6-yl)benzene-1,2-diol]

pIC50 (DYRK1A): 6.69
SMILES: COc1ccc(-c2nc3cc4cn[nH]c4cc3s2)cc1OC [FC-205, 6-(3,4-dimethoxyphenyl)-1H-thiazolo[4,5-f]-indazole]

pIC50 (DYRK1A): 6.25
SMILES: S=C1Cc2ccc(-c3nc4cc5c(cc4s3)OCO5)cc2N1 [FC-208]

SMILES: CCN1/C(=C/C(C)=O)Sc2ccc(O)cc21 [INDY, reference compound]
proliferation of U87MG cells, assessed by neurosphere diameter (U87MG cells [7]): did not inhibit proliferation
